Experiment [1] has as its system SH-SY5Y neuroblastoma cells. As to the kind of experiment: Neuroprotection / cell viability of neuroblastoma cells treated with MPP (CCK-8). It is filed as cell-based, human.
Method: Once grown the SH-SY5Y neuroblastoma cells were plated on 96-well plate at 11,000 cells/well and incubated for 2 days. The cells were then transferred to differentiation medium (which contains FBS at 1%) and 10 uM retinoic acid (Sigma Aldrich, cat. n. R2625-100MG). Differentiation medium was replaced every other day and cells were harvested at 7 day of differentiation. Cells were pre-treated with or without MPP (Sigma Aldrich, cat. n. D048-1G) for 8 hours. Subsequently, cells were treated with 10% bacterial supernatant and incubated overnight. Cell viability was measured by using CCK-8 reagent (Sigma Aldrich, Cell Counting Kit-8, cat. n. 96992-3000TESTS-F) and read at 450 nm wavelength.
In experiment [2] the test system is co-culture of human glioblastoma astrocytoma cells and neuroblastoma cells. As to the kind of experiment: α-synuclein-induced IL-6 secretion in co-culture. To be noted: 25 μg/ml α-synuclein (Wt, A53T, E46K), 10% bacteria supernatant, 48 hrs. In kind it is cell-based. Here is the method:
SHSY5Y cells were plated on 12 well plates at a density of 50,000 cells/well. The cells were grown in 50% MEM and 50% Nutrient Mixture F-12 Ham media supplemented with 2 mM L-Glutamine, 10% heat inactivated FBS, 100 U/ml penicillin, 100 μg/ml streptomycin. Cells on growth medium were plated on 96-well plate at 11,000 cells/well and placed in the incubator. After 2 days, media were replaced with differentiation medium (growth medium containing 1% FBS) and 10 μM retinoic acid. Differentiation medium was replaced every other day and cells were used after 7 days of differentiation. U373 were plated on 12 transwell plates (0.4 μm polyester membrane, Costar) at a density of 50,000 cells/well for 72 hrs. Cells were co-cultured together for 24 hrs before treatment in differentiation medium (growth medium containing 1% FBS without retinoic acid).
Thereafter cells were treated with 25 μg/ml α-synuclein (Wt, A53T, E46K) in the presence or absence of 10% bacteria supernatant for 48 hrs. Cell free Supernatants were collected, spun-down at 10000 g for 3 min at 4° C., aliquoted and stored at −80° C. Human IL-6 and IL-8 were measured as described above.

Experiment [3] can be described thus: ABTS antioxidant capacity assay of bacterial cell lysate. To be noted: compared to Trolox. The protocol:
Bacterial cells (10^6 or greater) were collected and centrifuged. They were resuspended in assay buffer (using three times the pellet volume). The suspension was sonicated on ice for 5 minutes and then spun down at 12,000×g for 10 minutes. The supernatant was removed and measured using the ABTS assay kit produced by Sigma Aldrich (code CS0790), in accordance with manufacturer's instructions.

Experiment [4] is described as follows: Lipid peroxidation, thiobarbituric reactive substances assay (TBARs). The conditions noted are these: positive control butylated hydroxytoluene (1% w/v). Here is the method: Bacterial cells (10^6 or greater) were collected and centrifuged, a wash step was performed with isotonic saline before the pellet was re-suspended in potassium chloride assay buffer. The suspension was sonicated on ice for 10 minutes and then spun down at 10,000×g for 10 minutes. The supernatant was removed and the level of lipid peroxidation evaluated using the thiobarbituric reactive substances assay.

A further experiment deals with T1, HDAC1 (Homo sapiens, UniProt Q13547).
T1 construct: purchased BPS Bioscience, CA
T1 sequence (Q13547 whole entry): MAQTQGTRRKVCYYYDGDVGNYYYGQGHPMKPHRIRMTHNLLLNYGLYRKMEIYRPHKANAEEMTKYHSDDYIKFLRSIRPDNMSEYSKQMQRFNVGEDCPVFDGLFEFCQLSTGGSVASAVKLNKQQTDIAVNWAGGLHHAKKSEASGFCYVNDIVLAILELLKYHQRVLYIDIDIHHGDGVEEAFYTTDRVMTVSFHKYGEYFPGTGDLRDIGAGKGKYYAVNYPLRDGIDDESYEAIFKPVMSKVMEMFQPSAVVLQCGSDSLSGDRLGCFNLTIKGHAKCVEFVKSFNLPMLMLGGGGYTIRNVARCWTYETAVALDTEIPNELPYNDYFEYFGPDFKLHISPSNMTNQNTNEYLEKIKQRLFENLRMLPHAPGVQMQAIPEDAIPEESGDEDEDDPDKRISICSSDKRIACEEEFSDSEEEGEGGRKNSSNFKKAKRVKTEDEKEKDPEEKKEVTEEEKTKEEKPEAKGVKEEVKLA
The experiment is described as follows: Specific HDAC activity analysis (fluorogenic assay kit, BPS Bioscience). It is filed as biochemical. The conditions noted are these: cell free supernatant diluted 1 in 10. Here is the method: (§1) Specific HDAC inhibition activity was analysed for HDAC1, 2, 3, 4, 5, 6, 9 using fluorogenic assay kits for each type of HDAC (BPS Bioscience, CA). Assays were conducted according to manufacturer's instructions and each sample were performed in replicates. Cell free supernatants were diluted 1 in 10 and exposed to specific HDAC proteins provided in the kit to maintain consistency between methods.

A further experiment addresses T2, HDAC2 (Homo sapiens, UniProt Q92769).
T2 construct: purchased BPS Bioscience, CA
Described as above. In kind it is biochemical. To be noted: cell free supernatant diluted 1 in 10. Here is the method: as §1

For another experiment, the target named is T3, HDAC3 (Homo sapiens, UniProt O15379).
T3 construct: purchased BPS Bioscience, CA
T3 sequence (O15379 whole entry): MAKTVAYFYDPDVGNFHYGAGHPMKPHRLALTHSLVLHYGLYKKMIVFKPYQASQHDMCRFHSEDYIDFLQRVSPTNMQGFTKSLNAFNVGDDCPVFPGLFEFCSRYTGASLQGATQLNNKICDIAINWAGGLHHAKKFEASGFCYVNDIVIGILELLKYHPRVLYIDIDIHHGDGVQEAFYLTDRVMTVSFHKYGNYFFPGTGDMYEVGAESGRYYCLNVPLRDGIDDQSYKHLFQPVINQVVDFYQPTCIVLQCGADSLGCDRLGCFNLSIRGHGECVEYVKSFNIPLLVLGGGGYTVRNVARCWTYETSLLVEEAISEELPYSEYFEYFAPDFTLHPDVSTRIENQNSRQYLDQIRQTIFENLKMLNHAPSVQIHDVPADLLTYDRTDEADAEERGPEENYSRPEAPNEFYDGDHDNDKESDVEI
T3 sequence (Q9Y618 395-489 partner limits assumed): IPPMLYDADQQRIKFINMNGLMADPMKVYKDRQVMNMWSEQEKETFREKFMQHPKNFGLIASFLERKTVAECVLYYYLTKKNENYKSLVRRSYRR
The experiment is described as above. In kind it is biochemical. The conditions noted are these: cell free supernatant diluted 1 in 10. The protocol:
as §1

In another experiment the test system is BALBc mice. The experiment is described as follows: Monoamine analysis in brainstem of mice fed with bacteria (HPLC). In kind it is in vivo, mouse. The conditions noted are these: 1×10^9 CFU oral gavage 6 days.
Experiment [5] deals with HT29-mtx epithelial, mucin-producing cell monolayers. As to the kind of experiment: IL-8 secretion of HT29-mtx monolayers. It is filed as cell-based. The conditions noted are these: bacterial supernatants 24 h; compared to untreated and YCFA-treated cells. An excerpt: HT29-mtx epithelial, mucin-producing cell monolayers were used as an in vitro model to evaluate gut barrier disruption and immune stimulation following treatment with MRx0005 and MRx0029.

For another experiment, the system named is mouse Splenocytes. The experiment is described as follows: Spleen cytokine assay ex vivo (LPS or ConA stimulation). In kind it is in vivo. Here is the method:
Spleens were collected immediately in 5 mL RPMI media following sacrifice and cultured immediately. Spleen cells were first homogenised in this RPMI media, followed by 5 mins incubation with 1 ml of RBC lysis buffer (11814389001 ROCHE, Sigma). A further 10 ml of RPMI media was added, followed by 200G centrifugation for 5 mins. The supernatant was then filtered through 40 um strainer. Cells were counted and seeded (4,000,000/mL media). After 2.5 h of adaptation, cells were stimulated with lipopolysaccharide (LPS-2 μg/ml) or concanavalin A (ConA-2.5 μg/ml) for 24 h. Following stimulation, the supernatants were harvested to assess the cytokine release using Proinflammatory Panel 1 (mouse) V-PLEX Kit (Meso Scale Discovery, Maryland, USA) for TNFα, IL-10, IL-1β, Interferon γ, CXCL2 and IL6. The analyses were performed using MESO QuickPlex SQ 120, SECTOR Imager 2400, SECTOR Imager 6000, SECTOR S 600.
The ex-vivo splenocyte assay involves challenging the splenocytes (cells isolated from the spleen—a main organ involved in immune defense), with a bacterio- or viral-mimetic challenge.

T2 sequence (Q92769 whole entry): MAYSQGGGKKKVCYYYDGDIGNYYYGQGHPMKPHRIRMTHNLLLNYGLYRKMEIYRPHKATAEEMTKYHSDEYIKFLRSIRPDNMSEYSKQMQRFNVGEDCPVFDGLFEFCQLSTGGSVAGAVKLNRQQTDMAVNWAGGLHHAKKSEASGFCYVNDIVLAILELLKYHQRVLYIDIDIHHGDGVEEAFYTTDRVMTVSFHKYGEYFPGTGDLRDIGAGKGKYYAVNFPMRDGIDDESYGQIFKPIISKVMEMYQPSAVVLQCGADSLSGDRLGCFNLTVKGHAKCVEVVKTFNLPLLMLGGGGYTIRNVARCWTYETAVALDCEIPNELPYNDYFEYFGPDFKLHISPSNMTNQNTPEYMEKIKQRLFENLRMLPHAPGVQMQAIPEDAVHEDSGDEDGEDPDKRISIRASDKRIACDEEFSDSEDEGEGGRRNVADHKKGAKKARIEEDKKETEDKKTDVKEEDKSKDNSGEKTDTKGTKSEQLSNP
Method for BALBc mice: Animals were allowed to habituate to their holding room for one week after arrival into the animal unit. They receive oral gavage (200 μL dose) of live biotherapeutics at a dose of 1×10^9 CFU for 6 consecutive days between 15:00 and 17:00. On day 7, the animals are decapitated, and tissues are harvested for experimentation.
Neurotransmitter concentration was analysed by HPLC on samples from the brainstem. Briefly, brainstem tissue was sonicated in 500 μl of chilled mobile phase spiked with 4 ng/40 μl of N-Methyl 5-HT (Sigma Chemical Co., UK) as internal standard. The mobile phase contained 0.1 M citric acid, 5.6 mM octane-1-sulphonic acid (Sigma), 0.1 M sodium dihydrogen phosphate, 0.01 mM EDTA (Alkem/Reagecon, Cork) and 9% (v/v) methanol (Alkem/Reagecon) and was adjusted to pH 2.8 using 4 N sodium hydroxide (Alkem/Reagecon). Homogenates were then centrifuged for 15 min at 22,000×g at 4° C. and 40 μl of the supernatant injected onto the HPLC system which consisted of a SCL 10-Avp system controller, LECD 6A electrochemical detector (Shimadzu), a LC-10AS pump, a CTO-10A oven, a SIL-10A autoinjector (with sample cooler maintained at 40 C) and an online Gastorr Degasser (ISS, UK). A reverse-phase column (Kinetex 2.6 u C18 100×4.6 mm, Phenomenex) maintained at 30° C. was employed in the separation (Flow rate 0.9 ml/min). The glassy carbon working electrode combined with an Ag/AgCl reference electrode (Shimdazu) operated a +0.8 V and the chromatograms generated were analyzed using Class-VP 5 software (Shimadzu). The neurotransmitters were identified by their characteristic retention times as determined by standard injections, which run at regular intervals during the sample analysis. The ratios of peak heights of analyte versus internal standard were measured and compared with standard injection. Results were expressed as ng of neurotransmitter per g fresh weight of tissue.

On to Megasphaera massiliensis [MRx0029], for which the proliferation of neurons entry in [1] (10% bacterial supernatant, without MPP) is “increase”. Also, the “cell viability of cells treated with MPP” value in experiment [1] (MPP pre-treatment 8 hours, then 10% bacterial supernatant overnight, compared to MPP alone) was “rescued viability more than the positive control”. In [1] (RA-differentiated SHSY-5Y cells treated with MPP+), the “protection from MPP+ (cell viability)” value was “complete protection”. For the same substance, the mitochondria metabolic activity result in [1] (RA-differentiated SHSY-5Y cells, per se (no MPP+)) is “increase”. For the same substance, in [2], the “α-syn-induced secretion of IL-6” value is reported as “greatest”. The antioxidant capacity entry in [3] is reported as “approximately 2 mM”. Also, the “inhibition of lipid peroxidation” value in experiment [4] is “approximately 20%”. The HDAC1 inhibition result on HDAC1 is listed as “very potent inhibitor”. Also, on HDAC2, the HDAC2 inhibition entry is recorded as “very potent inhibitor”. Moreover, the HDAC3 inhibition entry at HDAC3 was “very potent inhibitor”. In addition, in the experiment with BALBc mice, the 5-HIAA in brain entry was “slight increase” and the serotonin in brain entry is given as “slight increase”. For the same substance, in the experiment on BALBc mice (p=0.0507), the “noradrenaline levels in brain” value was “increased”. Moreover, in experiment [5], the “secretion of IL-8” value is “even lower secretion”. In the experiment with mouse Splenocytes (challenge with LPS), the interleukin-6 in splenocytes entry is recorded as “reduction”, the interleukin-113 in splenocytes result was “reduction” and the “levels of interferon-γ in splenocytes” value was “reduction”. Moreover, in the experiment with mouse Splenocytes (splenocytes), the “levels of the chemoattractant CXCL1” value was “increase”.

(Values after US11660319B2, “Compositions comprising bacterial strains” (priority 2017, dated 2023).)
